These results are taken from ChEMBL document CHEMBL5252536, “Discovery of VU0467485/AZ13713945: An M4 PAM Evaluated as a Preclinical Candidate for the Treatment of Schizophrenia” (ACS Med Chem Lett, 2017).

For orientation: pIC50 means −log10 of the IC50, conventionally taken in molar units. What is called fraction unbound is free concentration divided by total concentration. As usually defined, the Cmax is the maximum level reached in the sampled fluid or tissue. In general, bioavailability refers to dose-corrected exposure relative to a reference, in per cent. As a reminder, the solubility is the dissolved amount per volume that the medium holds. For orientation: pEC50 means the negative decadic logarithm of the EC50, by convention in mol/L. As usually defined, the clearance is the volume of plasma or blood freed of the substance per unit of time.

pEC50, pIC50: −log10 of the molar value. ≈ marks a conversion by molar mass, not a printed value. Calls of active or inactive are those of the source. The calls are words filed in the database; no cut-off is given here.

The nature of data set [1]: Volume of distribution at steady state in Sprague-Dawley rat at 3 mg/kg,po or 1 mg/kg,iv by LC-MS/MS analysis. The settings on record: in vivo. The data set is classed as ADME, organism-based.
Data set [2] concerns the target T1, Muscarinic acetylcholine receptor M4 (Homo sapiens) (UniProt P08173).
T1 sequence (whole entry): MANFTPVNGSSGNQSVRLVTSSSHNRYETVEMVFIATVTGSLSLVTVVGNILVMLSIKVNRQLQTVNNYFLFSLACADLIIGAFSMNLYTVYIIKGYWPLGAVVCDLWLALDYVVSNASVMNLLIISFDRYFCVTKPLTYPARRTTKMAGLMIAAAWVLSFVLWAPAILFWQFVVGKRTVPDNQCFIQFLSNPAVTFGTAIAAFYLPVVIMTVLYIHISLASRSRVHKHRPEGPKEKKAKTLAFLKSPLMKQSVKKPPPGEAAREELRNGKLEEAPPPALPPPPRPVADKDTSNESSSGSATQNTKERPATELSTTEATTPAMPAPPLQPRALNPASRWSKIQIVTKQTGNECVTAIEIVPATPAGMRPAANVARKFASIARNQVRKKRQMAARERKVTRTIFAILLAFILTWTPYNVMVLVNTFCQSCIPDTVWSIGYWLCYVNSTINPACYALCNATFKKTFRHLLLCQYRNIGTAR
The data set is described as follows: Positive allosteric modulator activity at human M4 receptor expressed in CHO cells co-expressing Gqi5 assessed as maximal response to ACh by calcium mobilization assay relative to contol. In kind it is cell-based. To be noted: filed as positive allosteric modulator.

Data set [3] has as its target T1, Muscarinic acetylcholine receptor M4 (Homo sapiens). The data set is described as follows: Positive allosteric modulator activity at human M4 receptor expressed in CHO cells co-expressing Gqi5 in absence of EC20 concentration of acetylcholine by calcium mobilization assay. In kind it is cell-based. Background: Calcium assays in cells follow changes in intracellular calcium, usually with a dye or a luminescent sensor.

For data set [4], the target named is T2, Muscarinic acetylcholine receptor M4 (Rattus norvegicus) (UniProt P08485).
T2 sequence (whole entry): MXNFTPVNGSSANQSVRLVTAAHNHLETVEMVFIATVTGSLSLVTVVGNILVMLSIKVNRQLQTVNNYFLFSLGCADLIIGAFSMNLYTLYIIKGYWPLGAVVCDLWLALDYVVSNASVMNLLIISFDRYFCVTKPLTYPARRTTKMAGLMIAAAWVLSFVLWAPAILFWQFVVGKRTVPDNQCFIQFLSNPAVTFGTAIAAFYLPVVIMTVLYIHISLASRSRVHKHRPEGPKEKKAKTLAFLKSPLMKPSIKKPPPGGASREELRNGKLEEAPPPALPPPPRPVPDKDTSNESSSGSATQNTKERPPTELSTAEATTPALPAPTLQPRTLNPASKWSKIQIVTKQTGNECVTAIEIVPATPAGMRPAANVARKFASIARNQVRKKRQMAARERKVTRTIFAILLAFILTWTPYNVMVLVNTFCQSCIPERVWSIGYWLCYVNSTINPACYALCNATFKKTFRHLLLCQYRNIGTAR
The data set can be described thus: Positive allosteric modulator activity at rat M4 receptor expressed in CHO cells co-expressing Gqi5 assessed as maximal response to ACh by calcium mobilization assay relative to contol. The data set is classed as cell-based. The settings on record: filed as positive allosteric modulator.

The target of data set [5] is T3, Cytochrome P450 2C9 (Homo sapiens, UniProt P11712). The data set can be described thus: Inhibition of CYP2C9 in human liver microsomes using diclofenac as substrate incubated for 15 mins in presence of NADPH by LC/MS/MS analysis. The data set is classed as ADME, Microsome. On the technique in general: Microsomes from liver hold many membrane-bound enzymes, among them those of drug oxidation.

A short description of data set [6]: Fraction unbound in rat brain incubated for 6 hrs by LC/MS/MS analysis. The data set is classed as ADME, tissue-based.
A short description of data set [7]: Genotoxicity in Salmonella typhimurium TA98 by Ames test. The data set is classed as toxicity. The settings on record: salmonella enterica subsp. enterica serovar typhimurium. Background: The Ames test uses bacterial strains that need an amino acid and regain growth without it when mutated back.
The nature of data set [8]: Genotoxicity in Salmonella typhimurium TA100 by Ames test. In kind it is toxicity. The settings on record: salmonella enterica subsp. enterica serovar typhimurium.
Data set [9] in a line: Cmax in Sprague-Dawley rat at 3 mg/kg,po by LC-MS/MS analysis. The data set is classed as ADME, organism-based. On the set-up: dose 3 mg/kg, route po. To be noted: in vivo.
A short description of data set [10]: Cmax in Beagle dog at 3 mg/kg,po by LC-MS/MS analysis. In kind it is ADME, organism-based, Canis lupus familiaris. On the set-up: dose 3 mg/kg, route po. The settings on record: in vivo.
The nature of data set [11]: Oral bioavailability in Beagle dog at 3 mg/kg by LC-MS/MS analysis. In kind it is ADME, organism-based, Canis lupus familiaris. To be noted: in vivo.
A short description of data set [12]: Ratio of drug concentration in Sprague-Dawley rat brain to plasma at 1 to 10 mg/kg, po by LC-MS/MS analysis. The data set is classed as ADME, organism-based. The settings on record: dose 1-10 mg/kg, read-out: BPR.
The next data set deals with Cytochrome P450 3A4 (Homo sapiens, UniProt P08684). The data set can be described thus: […] of human CYP3A4 mediated drug metabolism incubated for 5 mins followed by NADPH addition measured after 1 hr by LC-UV/MS analysis relative to control. The data set is classed as ADME. To be noted: recombinant enzyme, 1.083 h, time 65 min.
Data set [13] addresses T3, Cytochrome P450 2C9. The data set is described as follows: […] of human CYP2C9 mediated drug metabolism incubated for 5 mins followed by NADPH addition measured after 1 hr by LC-UV/MS analysis relative to control. The data set is classed as ADME. The settings on record: recombinant enzyme, 1.083 h, time 65 min.
The subject of the next data set is Rattus norvegicus. The data set can be described thus: Antipsychotic activity in amphetamine-induced hyperlocomotion activity in rat assessed as reversal of amphetamine-induced hyperlocomotion at 1 to 10 mg/kg, po preincubated for 30 mins followed by amphetamine addition and measured after 60 mins by open field test relative to control. In kind it is functional. The settings on record: dose 1-10 mg/kg, time 90 min, 1.5 h.

Data set [14] can be described thus: Terminal brain concentration in rat model of amphetamine-induced hyperlocomotion activity at 1 to 10 mg/kg, po measured after 1.5 hrs. In kind it is ADME, organism-based. To be noted: dose 1-10 mg/kg, read-out: Ct.
The nature of data set [15]: Aqueous solubility of compound at pH 7.4. In kind it is physicochemical. To be noted: buffer.
Data set [16] has as its target T4, Muscarinic acetylcholine receptor M2 (Rattus norvegicus, UniProt P10980).
T4 sequence (P10980 whole entry): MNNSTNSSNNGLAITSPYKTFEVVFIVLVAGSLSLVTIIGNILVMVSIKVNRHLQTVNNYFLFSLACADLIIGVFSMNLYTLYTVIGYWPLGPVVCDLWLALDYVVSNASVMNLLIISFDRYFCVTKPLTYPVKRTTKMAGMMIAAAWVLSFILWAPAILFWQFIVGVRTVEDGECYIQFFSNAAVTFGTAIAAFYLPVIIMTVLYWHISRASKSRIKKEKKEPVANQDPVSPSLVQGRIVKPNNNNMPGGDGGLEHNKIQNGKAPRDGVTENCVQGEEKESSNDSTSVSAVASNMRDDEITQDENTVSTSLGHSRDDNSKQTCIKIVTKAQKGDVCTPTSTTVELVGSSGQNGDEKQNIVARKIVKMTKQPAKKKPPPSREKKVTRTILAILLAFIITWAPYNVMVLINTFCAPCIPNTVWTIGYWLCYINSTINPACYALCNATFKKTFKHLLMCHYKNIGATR
The data set is described as follows: Positive allosteric modulator activity at rat M2 receptor expressed in CHO cells co-expressing Gqi5 assessed as maximal response to ACh by calcium mobilization assay. The data set is classed as cell-based.

Data set [17] is described as follows: Clearance in Cynomolgous monkey plasma at 0.2 mg/kg,iv by LC-MS/MS analysis. To be noted: cynomolgus monkey.
Data set [18] is described as follows: Volume of distribution at steady state in Cynomolgous monkey at 0.2 mg/kg,iv by LC-MS/MS analysis. To be noted: cynomolgus monkey, in vivo, read-out: Vdss.

T3 sequence (P11712 whole entry): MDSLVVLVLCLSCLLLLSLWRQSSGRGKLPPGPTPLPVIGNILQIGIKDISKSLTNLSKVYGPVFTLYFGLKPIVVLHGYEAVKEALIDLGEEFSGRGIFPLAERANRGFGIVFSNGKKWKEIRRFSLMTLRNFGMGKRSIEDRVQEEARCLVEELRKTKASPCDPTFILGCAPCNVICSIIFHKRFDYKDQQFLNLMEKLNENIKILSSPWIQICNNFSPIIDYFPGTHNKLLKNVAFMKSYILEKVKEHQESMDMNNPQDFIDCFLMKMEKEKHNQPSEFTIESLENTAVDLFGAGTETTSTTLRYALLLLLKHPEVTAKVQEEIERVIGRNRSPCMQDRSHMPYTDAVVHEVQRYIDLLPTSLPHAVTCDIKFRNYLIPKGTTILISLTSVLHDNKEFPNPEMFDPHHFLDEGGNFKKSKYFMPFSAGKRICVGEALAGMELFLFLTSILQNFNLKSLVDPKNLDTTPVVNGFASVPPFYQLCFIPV
Chain of Cytochrome P450 3A4 (P08684 whole entry): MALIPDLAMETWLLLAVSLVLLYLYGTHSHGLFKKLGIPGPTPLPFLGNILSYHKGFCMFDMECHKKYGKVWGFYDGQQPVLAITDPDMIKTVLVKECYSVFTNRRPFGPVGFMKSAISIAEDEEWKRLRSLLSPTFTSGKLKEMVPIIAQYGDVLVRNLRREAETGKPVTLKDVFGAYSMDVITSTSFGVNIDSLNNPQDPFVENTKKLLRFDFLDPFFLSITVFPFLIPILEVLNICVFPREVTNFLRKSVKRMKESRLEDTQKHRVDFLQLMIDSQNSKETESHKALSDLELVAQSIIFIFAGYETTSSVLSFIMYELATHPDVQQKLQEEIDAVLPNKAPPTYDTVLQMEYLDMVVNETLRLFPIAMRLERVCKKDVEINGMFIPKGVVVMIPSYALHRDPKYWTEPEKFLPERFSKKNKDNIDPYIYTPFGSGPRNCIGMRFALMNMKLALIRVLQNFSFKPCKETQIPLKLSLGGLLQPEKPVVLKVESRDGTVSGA

In data set [1], `COc1ccc(CNC(=O)c2sc3nnc(C)c(C)c3c2N)cc1F` gave a Vdss of 1.5 L/kg. The Activity in data set [2] is 80.6%; in data set [2] (tested as the 2H-labelled form), 87.1%; in [4], 68.7%; in data set [7] it was “Non-Toxic”; in data set [8], “Non-Toxic”; at Cytochrome P450 3A4, 43.7%. The Activity worked out at 3.5% at Cytochrome P450 2C9 [13] and 43.2% in the data set with Rattus norvegicus. Besides, the result in data set [3] was inactive. Moreover, the negative logarithm of the IC50 (pIC50) at Cytochrome P450 2C9 [5] is below 4.52. The free fraction (fraction unbound) at 6 h in data set [6] amounted to 0.037. Further, the Cmax in [9] was determined as 1200 nM; in data set [10], 220 nM. In addition, in [11], the bioavailability came to 9.5%. In [12], the Kp stood at 0.31. For the same molecule, the concentration at 1.5 h in data set [14] was found to be 560 nM. Further, the solubility in data set [15] came to 2.4 µM (≈ 0.865 µg/mL). Besides, the pEC50 in data set [16] was below 4.52. In addition, the clearance in data set [17] worked out at 25 mL/min/kg. The Vd in data set [18] is 0.88 L/kg.
